Our source for the IC50 values is US6448269B1 (Eli Lilly and Company, priority 1993, dated 2002).

In assay [1] the test system is human platelet-rich plasma. Put plainly: Platelet aggregation assay (Aggregation-Human PRP/ADP). The assay is classed as cell-based. The conditions noted are these: 1 min; human platelet-rich plasma incubated with compound 1 minute at 37° C.; ADP-induced aggregation; read-out: Agg: Human PRP/ADP IC50uM. As for the experimental part:
Platelet-rich plasma was prepared from healthy human volunteers for use in determining inhibition of platelet aggregation by the compounds.
Platelet-rich plasma was prepared at room temperature by centrifugation of the citrated whole blood at 100×g for 12 minutes. The platelet rich plasma contained approximately 200-400,000 platelets/μl.
Platelet-poor plasma was prepared by centrifugation of citrated whole blood at 12,000×g for 2 minutes.
Platelet aggregation was assayed in a 4-channel platelet aggregation profiler (PAP-4, Biodata, Hatboro, Pa.) according to the manufacturers directions. Inhibition of platelet aggregation was studied by adding varying amounts of […] to stirred human platelet-rich plasma. Specifically, the human platelet-rich plasma was incubated with the compound being tested for 1 minute at 37° C. prior to the addition of a variety of aggregating agents most often ADP 5 μM, but also 1 μg/ml collagen, 1 μM U46619 and 0.3 μM platelet activating factor.

Assay [2] concerns the target T1, GPIIb-IIIa (Homo sapiens, UniProt P05106+P08514).
T1 construct: Purified platelet GPIIb-IIIa receptor was prepared as described by Fitzgerald; from tissue; host or cells: platelets
T1 sequence (P08514 32-887 limits assumed): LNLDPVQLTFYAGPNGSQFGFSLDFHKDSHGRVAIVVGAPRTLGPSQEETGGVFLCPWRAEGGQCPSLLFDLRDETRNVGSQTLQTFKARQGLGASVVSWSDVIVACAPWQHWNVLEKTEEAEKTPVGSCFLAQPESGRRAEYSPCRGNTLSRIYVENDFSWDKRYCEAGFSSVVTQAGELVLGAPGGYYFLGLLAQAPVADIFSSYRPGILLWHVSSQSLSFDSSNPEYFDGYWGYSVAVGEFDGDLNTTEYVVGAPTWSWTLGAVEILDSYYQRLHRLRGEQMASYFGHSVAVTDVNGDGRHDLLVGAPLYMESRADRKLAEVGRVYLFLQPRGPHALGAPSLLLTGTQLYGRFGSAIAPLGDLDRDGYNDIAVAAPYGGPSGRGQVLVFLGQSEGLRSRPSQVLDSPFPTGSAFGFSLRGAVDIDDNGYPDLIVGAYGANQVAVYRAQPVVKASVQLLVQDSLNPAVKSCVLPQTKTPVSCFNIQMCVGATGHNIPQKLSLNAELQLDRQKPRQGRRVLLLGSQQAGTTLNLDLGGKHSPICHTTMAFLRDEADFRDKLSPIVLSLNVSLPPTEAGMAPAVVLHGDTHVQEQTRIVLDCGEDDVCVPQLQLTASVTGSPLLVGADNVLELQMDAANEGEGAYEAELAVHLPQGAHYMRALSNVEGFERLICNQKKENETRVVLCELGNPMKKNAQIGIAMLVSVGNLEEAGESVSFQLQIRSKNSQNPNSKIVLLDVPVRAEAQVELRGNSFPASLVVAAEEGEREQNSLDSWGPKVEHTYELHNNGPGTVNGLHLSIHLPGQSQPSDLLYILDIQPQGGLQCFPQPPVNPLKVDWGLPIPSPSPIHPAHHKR
T1 sequence (P05106 27-788): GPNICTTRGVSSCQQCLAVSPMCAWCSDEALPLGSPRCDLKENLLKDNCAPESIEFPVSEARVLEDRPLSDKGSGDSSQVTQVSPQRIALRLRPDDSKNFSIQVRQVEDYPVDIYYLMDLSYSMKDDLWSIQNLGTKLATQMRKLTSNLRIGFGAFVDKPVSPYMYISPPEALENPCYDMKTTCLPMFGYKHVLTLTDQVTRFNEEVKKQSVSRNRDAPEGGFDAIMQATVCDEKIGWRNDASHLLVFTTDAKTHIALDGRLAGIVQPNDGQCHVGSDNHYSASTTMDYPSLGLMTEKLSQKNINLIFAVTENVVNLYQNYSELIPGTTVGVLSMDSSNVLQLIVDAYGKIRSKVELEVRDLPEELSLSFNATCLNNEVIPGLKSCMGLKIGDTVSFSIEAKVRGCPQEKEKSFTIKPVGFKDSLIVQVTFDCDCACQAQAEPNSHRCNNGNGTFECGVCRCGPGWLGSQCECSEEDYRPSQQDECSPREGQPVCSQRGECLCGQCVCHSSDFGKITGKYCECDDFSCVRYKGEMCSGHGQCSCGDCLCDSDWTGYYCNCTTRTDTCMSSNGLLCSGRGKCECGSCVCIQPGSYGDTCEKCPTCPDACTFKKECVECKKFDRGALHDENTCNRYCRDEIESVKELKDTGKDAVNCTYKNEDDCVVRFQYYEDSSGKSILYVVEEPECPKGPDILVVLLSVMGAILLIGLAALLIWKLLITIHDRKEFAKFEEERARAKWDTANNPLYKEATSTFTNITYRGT
Put plainly: ELISA IIb-IIIa assay (fibrinogen binding to immobilized GPIIb-IIIa). The conditions noted are these: purified platelet GPIIb-IIIa receptor coated on ELISA plates; biotin-labeled fibrinogen 10 nM, 3 hours at 25° C. As for the experimental part:
In the following assay, GPIIb-IIIa is prepared in purified form, by a method such as described by Fitzgerald, L. A., et al., Anal Biochem (1985) 151:169-177, (the disclosure of which is incorporated herein by reference). GPIIb-IIIa is coated onto microtiter plates. The coated support is then contacted with fibrinogen and with the test material (e.g., compounds of Formula I) and incubated for a sufficient time to permit maximal binding of fibrinogen to the immobilized GPIIb-IIIa. Fibrinogen is typically provided at a concentration of about 5-50 nM and the test material can, if desired, be added at a series of dilution. Typical incubations are 2 to 4 hours at 25° C., the time and temperature being interdependent.
After incubation, the solution containing the fibrinogen and test material is removed and the level of binding of fibrinogen measured by quantitating bound fibrinogen to GPIIb-IIIa. Any suitable means of detection may be used, but it is convenient to employ labeled fibrinogen, for example using biotinylated labels. Such methods are well known in the art.
Purified platelet GPIIb-IIIa receptor was prepared as described by Fitzgerald, L. A., et al., Anal Biochem (1985) 151:169-177 (1985). Vitronectin receptor was prepared as described by Smith, J. W., J. Biol Chem (1988) 263:18726-18731. After purification, the receptors were stored in 0.1% Triton X-100 at 0.1-1.0 mg/ml.
The receptors were coated to the wells of 96-well flat-bottom ELISA plates (Linbro EIA-Plus microtiter plate, Flow Laboratories) after diluting 1:200 with a solution of 20 mM Tris-HCl, 150 mM NaCl, 1 mM CaCl2, pH 7.4, to reduce the Triton X-100 concentration to below its critical micellar concentration and adding an aliquot of 100 ul to each well. The wells were all allowed to incubate overnight at 4° C., and then aspirated to dryness. Additional sites were blocked by the addition of bovine serum albumin (BSA) at 35 mg/ml in the above buffer for 2 hours at 30° C. to prevent nonspecific binding. The wells were then washed once with binding buffer ([…] Tris-HCl, 100 mM NaCl 2 mM CaCl2, 1 mg/ml BSA).
The corresponding ligands (fibrinogen, von Willebrand Factor, or vitronectin) were conjugated to biotin using commercially available reagents and standard protocols. The labeled ligands were added to the receptor-coated wells at final concentration of 10 nM (100 ul/well) and incubated for 3 hours at 25° C. in the presence or absence of the test samples. After incubation, the wells are aspirated to dryness and bound ligand is quantitated.
The bound protein is detected by the addition of antibiotin antibody conjugated to alkaline phosphatase followed by addition of substrate (p-nitrophenyl phosphate), and determination of the optical density of each well at […]. Decreased color development is observed in wells incubated with test samples which inhibit binding of ligand to receptor.
On the technique in general: ELISA stands for enzyme-linked immunosorbent assay.

Counter-ions that a name gives are not always drawn.

Take `N=C(N)c1ccc(COc2ccc3c(c2)CCN(C(CC(=O)O)C(=O)NCCC(=O)O)C3=O)cc1` (racemic) [Example 9, (+−)-6-[[4-(Aminoiminomethyl)phenyl]methoxy]-beta-[[(2-carboxyethyl)amino]carbonyl-3,4-dihydro-1-oxo-2(1H)-isoquinoline Propanoic Acid Trifluoroacetate]: the IC50 was 0.85 µM in assay [1] and 85 nM in assay [2].

Consider `N=C(N)c1cccc(C#Cc2ccc3c(c2)CCN(CC(=O)O)C3=O)c1` [Example 17, 6-[[3-(Aminoiminomethyl)phenyl]ethynyl]-3,4-dihydro-1-oxo-2(1H)-isoquinoline Acetic Acid Trifluoroacetate], for which the values for the IC50 in assay [1] and in assay [2] were more than 100 µM and 45000 nM, respectively.

For `CCOC(=O)CC1CCc2cc(NC(=O)c3ccc(C(=N)NC)cc3)ccc2O1` (racemic) [Example 57, Hydrochloride], the IC50 in assay [1] was 0.66 µM; in assay [2], more than 10000 nM.

As to `CNC(=O)C(CC(=O)O)N1CCc2cc(OCc3ccc(C(=N)N)cc3)ccc2C1=O` (racemic) [Example 8, (+−)-6-[[4-(Aminoiminomethyl)phenyl]methoxy]-3,4-dihydro-beta-[(methylamino)carbonyl]-1-oxo-2(1H)-isoquinoline Propanoic Acid Trifluoroacetate], the IC50 in assay [1] came to 0.55 µM; in assay [2], 80 nM.

On to `N=C(N)c1ccc(COc2ccc3c(c2)CCN(CC(=O)O)C3=O)cc1` [Example 1, 6-[[4-(Aminoiminomethyl)phenyl]methoxy]-3,4-dihydro-1-oxo-2(1H)-isoquinoline Acetic Acid Trifluoroacetate], for which the IC50 in assay [1] stood at 20 µM; in assay [2], 600 nM.

With `CCOC(=O)CC1CCc2cc(NC(=O)c3ccc(C(=N)NC(=O)OC)cc3F)ccc2O1` (racemic) [Example 88, Ethyl rac-(3,4-Dihydro-6-(N-(2-fluoro-4-((methoxycarbonylamino)iminomethyl)benzoyl)amino)-2H-1-benzopyran-2-yl)acetate], the IC50 was found to be 0.084 µM in assay [1] and 99 nM in assay [2].

Turning to `N=C(N)c1ccc(COc2ccc3c(c2)CCN(CC(=O)O)C3)cc1` [Example 35], the IC50 in assay [1] stood at 0.33 µM; in assay [2], 30 nM.

As to `N=C(N)Nc1ccc(C(=O)Nc2ccc3c(c2)CCC(CC(=O)O)O3)cc1` (racemic) [Example 65, rac-(6-(N-(4-((Aminoiminomethyl)amino)benzoyl)amino)-3,4-dihydro-2H-1-benzopyran-2-yl)acetic Acid], the IC50 worked out at 4.8 µM in assay [1] and 180 nM in assay [2].

With `N=C(N)c1ccc(C(=O)Nc2ccc3c(c2)CCC(CC(=O)O)O3)c(Cl)c1` (racemic) [Example 76, rac-(6-(N-(4-(Aminoiminomethyl)-2-chlorobenzoyl)amino)-3,4-dihydro-2H-1-benzopyran-2-yl)acetic Acid], the IC50 was determined as 0.56 µM in assay [1] and 14 nM in assay [2].

With `O=C(O)CC1CCc2cc(OCCC3CCNCC3)ccc2O1` (racemic) [Example 61, rac-(3,4-Dihydro-6-(2-(piperidin-4-yl)ethoxy)-2H-1-benzopyran-2-yl)acetic Acid Trifluoroacetate], the IC50 in assay [1] was 100 µM; in assay [2], more than 1000 nM.

On to `N=C(N)c1ccc(C(=O)Nc2ccc3c(c2)CCN(CC(=O)O)C3)cc1` [Example 36], for which the values for the IC50 in assay [1] and in assay [2] were 0.17 µM and 5 nM, respectively.

In the case of `N=C(N)c1ccc(C(=O)Nc2ccc3c(c2)CCN(CC(=O)O)C3=O)cc1` [Example 4, 6-[[(4-(Aminoiminomethyl)benzoy]amino]-3,4-dihydro-1-oxo-2(1H)-isoquinoline Acetic Acid Trifluoroacetate], the figures for the IC50 in assay [1] and in assay [2] were 0.1 µM and 3.3 nM, respectively.

For the compound `CCOC(=O)CC1CCc2cc(NC(=O)c3ccc(NC(=N)N)cc3)ccc2O1` (racemic) [Example 64, Ethyl rac-(6-(N-(4-((Aminoiminomethyl)amino)benzoyl)amino)-3,4-dihydro-2H-1-benzopyran-2-yl)acetate], the IC50 is 11 µM in assay [1] and 800 nM in assay [2].

Turning to `CCCCCC(CC(=O)O)N1CCc2cc(OCc3ccc(C(=N)N)cc3)ccc2C1=O` (racemic) [Example 12, (+−)-6-[[4-(Aminoiminomethyl)phenyl]methoxyl]-3,4-dihydro-1-oxo-b-pentyl-2(1H)-isoquinolinepropanoic Acid Trifluoroacetate], the figures for the IC50 in assay [1] and in assay [2] were 0.57 µM and 24 nM, respectively.

With `N=C(N)c1ccc(NC(=O)c2ccc3c(c2)CCC(OCC(=O)O)C3)cc1` (centres unmarked) [Example 39], the IC50 in assay [1] stood at 0.36 µM; in assay [2], 31 nM.

Consider `N=C(N)c1ccc(C(=O)Nc2ccc3c(c2)CCC(CCC(=O)O)C3)cc1` (centres unmarked) [Example 38], for which the results for the IC50 in assay [1] and in assay [2] were 2.8 µM and 240 nM, respectively.
